From article PMC12195677, “In Vitro Effect of Ferruginol, Tanshinone, and Carnosol Analogues on the Proliferation of Three Breast Cancer Cell Lines” (Molecules, 2025)
Read-outs that look alike come from different tables or passages of the source.

Assays:
[1] = system: several breast cancer cell lines; set-up: method as in PMID 36831660; details: cited from earlier work; for therapeutic index range: range over the named compounds and cell lines (Table 1)
[2] = system: SUM149; details: cited from earlier work; for TI (therapeutic index) SUM149: EC50 BJ fibroblasts / EC50 SUM149
[3] = system: MDA-MB231; details: cited from earlier work; for TI (therapeutic index) MDA-MB231: EC50 BJ fibroblasts / EC50 MDA-MB231
[4] = system: MCF07; details: cited from earlier work; for TI (therapeutic index) MCF07: EC50 BJ fibroblasts / EC50 MCF07
[5] = system: human BJ fibroblasts; details: cited from earlier work
[6] = system: SUM149; assay: CellTiter-Glo cell viability/proliferation assay, SUM149; assay type: cell-based, Human; details: for TI (therapeutic index) SUM149: EC50 BJ fibroblasts / EC50 SUM149; for IC50: Homo sapiens, SUM149, 72 h incubation, CellTiter-Glo, mean ± SD, read-out: Cytotoxicity IC50, SUM149
Description: (§1) The compounds were systematically assessed through multiple biological testing platforms to establish their relative effectiveness and explore potential correlations between chemical structure and biological function. Firstly, their ability to inhibit the proliferation of three specific breast cancer linages (SUM149, MDA-MB231, MCF07) was evaluated in vitro by using the established CellTiter-Glo® [18, 19] cellular proliferation assay.
(§2) Human cell lines were incubated at 37 °C in a 5% CO2 atmosphere and maintained under sterile conditions. Cells were tested for Mycoplasma (Lonza, Alpharetta, GA, USA) using the manufacturer’s conditions prior to experiments. Cell lines were purchased from American Type Culture Collection (ATCC, Manassas, VA, USA), and SUM149 was obtained from Asterand (Detroit, MI, USA) and cultured without antibiotics unless stated. Cells were cultured in Eagle’s Minimum Essential Medium (EMEM), DMEM, or F12 from ATCC supplemented with 10% fetal bovine serum (FBS, Hyclone, Logan, UT, USA) and 1% GlutaMAX. Human BJ fibroblast cells (ATCC, CRL-2522) were supplemented with 10% fetal bovine serum (FBS, Hyclone, Logan, UT, USA) and 1% GlutaMAX. BJ cells were cultured in EMEM media, and breast cancer cells (MDA-MB-231, MCF07) were cultured in DMEM. SUM149 was cultured in Ham’s F12 supplemented with 1% GlutaMAX,1% Pen/Step, 2 μM cortisol, and 1 ug/mL insulin. Cells were grown to 80% confluence densities as recommended by ATCC.
(§3) Cytotoxicity evaluation was performed using the CellTiter-Glo Luminescent Cell Viability Assay kit (G7570, Promega, Madison, WI, USA), according to the manufacturer’s instructions. Briefly, the cell concentrations used were experimentally determined to ensure logarithmic growth during the 72 h duration of the experiment and avoid adverse effects on cell growth by DMSO exposure. To proceed, […] cells/well were seeded in 96-well white flat-bottomed plates (#3610 Corning, Corning, NY, USA) in […]. The plates were incubated at 37 °C in 5% CO2 for 24 h before drugging. Test compounds (10 mM in DMSO) in eight 2-fold serial dilutions were dispensed to assay plates. The final concentration of DMSO was 0.3% (v/v) in each well. The positive controls included staurosporine (10 μM) and/or gambogic acid (10 μM). The plates were incubated for 72 h at 37 °C in 5% CO2, then quenched with CellTiter-Glo® (Promega, Madison, WI, USA, 50 uL/well), centrifuged at 1000 rpm for 1 min, and incubated at RT for 20 min. Luminescence was recorded with a plate reader (CLARIOstar Plus, BMG LabTech, Ortenberg, Germany). The mean luminescence of each experimental treatment group was normalized as a percentage of the mean intensity of untreated controls. EC50 values were calculated from dose-response curve-fitting via non-linear regression using GraphPad Prism 9.0 (GraphPad Software, San Diego, CA, USA). A therapeutic index (TI) between normal and tumor cell lines can be determined (EC50 non-neoplastic cell line BJ)/(EC50 cancer cell line).

[7] = system: MDA-MB231; assay: CellTiter-Glo cell viability/proliferation assay, MDA-MB231; assay type: cell-based, Human; details: for TI (therapeutic index) MDA-MB231: EC50 BJ fibroblasts / EC50 MDA-MB231; for IC50: Homo sapiens, MDA-MB-231, 72 h incubation, CellTiter-Glo, mean ± SD, read-out: Cytotoxicity IC50, MDA-MB231
Description: as §1, §2, §3

[8] = system: MCF07; assay: CellTiter-Glo cell viability/proliferation assay, MCF07; assay type: cell-based, Human; details: for TI (therapeutic index) MCF07: EC50 BJ fibroblasts / EC50 MCF07; for IC50: Homo sapiens, 72 h incubation, CellTiter-Glo, mean ± SD, read-out: Cytotoxicity IC50, MCF07
Description: as §1, §2, §3

[9] = CellTiter-Glo cell viability assay, non-neoplastic BJ fibroblasts; assay type: cell-based; details: BJ fibroblast cells (non-neoplastic, ATCC CRL-2522), non-neoplastic human BJ fibroblasts, mean ± SD, read-out: Cytotoxicity IC50, BJ
Description: as §2, §3

[10] = system: MDA-MB231 breast cancer cells; assay: Cell morphology by brightfield microscopy; assay type: cell-based, Human; details: 24 h treatment, brightfield 10×; 1 and 6 at 5 μM, 10 at 10 μM
Excerpt: Brightfield microscopy images of MDA-MB231 breast cancer cells are indicated in Figure 6 to highlight the morphological changes that occur upon treatment with compounds 1, 6, and 10 as representative compounds. […] The precise mechanism of cell death for other compounds remained unclear.
Representative images were collected using 10× objective with a Leica DMi1 Microscope (Leica microsystems, Wetzlar, Germany). MDA-MB231 cells were imaged with a vehicle as the negative control, staurosporine as the positive control (2 μM), or compounds with results shown in representative images for 24 h.

[11] = system: SUM149 cells; assay: Colony formation (clonogenic) assay, SUM149; assay type: cell-based, Human; details: 10 μM
Description: Further evaluation of various promising compounds using breast cancer cells included analysis of colony-forming inhibition capabilities and investigations into their specific mechanistic pathways of action. Thus, the anchorage-dependent colony formation assay, also known as the clonogenic assay, was conducted. This method in cancer research evaluates the ability of single cells to grow into colonies when attached to a surface and can measure a cell’s ability to undergo “unlimited” division and form a colony (usually defined as ≥50 cells).
The clonogenic assay offers comprehensive insights into the compound’s overall efficacy and is regarded as the definitive method for assessing post-treatment reproductive cell death (both cytotoxic and cytostatic effects). The extended duration of the experiment simultaneously provides valuable data on the compounds’ stability over time, which are not detected in short-term viability assays. […] In the MDA-MB231 cellular model (Figure 3), the evaluated compounds successfully eliminated the cells’ capacity to establish colonies (for images, see Figures S3 and S4).
MDA-MB-231 (0.8 × 10^6 cells/well) and SUM-149 cells (1.5 × 10^6 cells/well) were plated on a 6-well plate. Two days later, cell media was changed to 5% FBS, and cells were incubated at 37 °C in a 5% CO2 atmosphere for 1 h before the vehicle (0.1% DMSO) or compound (5–10μM) was added. After 72 h of treatment, cells were trypsinized and reseeded at 800 cells/mL (MDA-MB231) and 1200 cells/mL (SUM149) per well in 6-well plates. After 10 days of culture, the media was removed from the wells and washed once with cold PBS. The colonies were stained with 5 mL of 1% Crystal Violet for 30 min. The dishes were fixed by methanol, rinsed with water three times, and air-dried, and the colonies were counted using ImageJ version 1.5.4 (NIH, Bethesda, MD, USA).

[12] = read-out: Cytotoxicity IC50, SUM149, 72 h incubation, CellTiter-Glo, mean ± SD
[13] = read-out: Cytotoxicity IC50, MDA-MB231, 72 h incubation, CellTiter-Glo, mean ± SD
[14] = read-out: Cytotoxicity IC50, MCF07, 72 h incubation, CellTiter-Glo, mean ± SD
[15] = read-out: Cytotoxicity IC50, BJ, non-neoplastic human BJ fibroblasts, 72 h, CellTiter-Glo, mean ± SD

| Compound | therapeutic index range [1] | TI (therapeutic index) SUM149 [2] | TI (therapeutic index) MDA-MB231 [3] | TI (therapeutic index) MCF07 [4] | TI (therapeutic index) SUM149 [6] | IC50 [6] | TI (therapeutic index) MDA-MB231 [7] | IC50 [7] | TI (therapeutic index) MCF07 [8] | IC50 [8] | IC50 at 72 h [9] | IC50 [2] | IC50 [3] | IC50 [4] | IC50 [5] | other results |
| --- | --- | --- | --- | --- | --- | --- | --- | --- | --- | --- | --- | --- | --- | --- | --- | --- |
| CC(C)c1cc2c(cc1O)[C@@]1(C)CCC[C@@](C)(CN3C(=O)c4ccccc4C3=O)[C@@H]1CC2 [Compound 5, 18-(phthalimid-2-yl)ferruginol] | 6–43 | 17 | 9 | 6 |  |  |  |  |  |  |  |  |  |  |  | IC50 [2, 12]: 4.4 ± 0.2 µM; IC50 [3, 13]: 8.2 ± 0.5 µM; IC50 [4, 14]: 13 ± 0.6 µM; IC50 [5, 15]: 74.8 ± 5.3 µM |
| COc1cccc2c1C(=O)N(C[C@]1(C)CCC[C@]3(C)c4cc(O)c(C(C)C)cc4CC[C@@H]13)C2=O [Compound 8, 12-Hydroxy-N,N-(3-methoxyphthaloyl)dehydroabietylamine] |  |  |  |  | 12 | 5.3 ± 0.1 µM | ≈1 | 54.6 ± 5 µM | 6 | 11 ± 1.4 µM | 61.2 ± 5.4 µM |  |  |  |  |  |
| CC(C)c1cc2c(cc1O)[C@@]1(C)CCC[C@@](C)(CN3C(=O)c4ccc(F)cc4C3=O)[C@@H]1CC2 [Compound 7] |  |  |  |  | >12 | 4.3 ± 0.1 µM | >7 | 7.6 ± 0.2 µM | >7 | 7 ± 0.6 µM | > 50 µM |  |  |  |  |  |
| CC(C)c1cc2c(cc1O)[C@@]1(C)CCC[C@@](C)(CN)[C@@H]1CC2 [Compound 2, 12-hydroxydehydroabietylamine] |  | 17 | 15 | 7 |  |  |  |  |  |  |  | 4.4 ± 0.3 µM | 5.1 ± 0.6 µM | 10 ± 1.5 µM | 75 ± 6.2 µM |  |
| CC(C)c1cc2c(cc1O)[C@@]1(C)CCC[C@@](C)(CN3C(=O)c4cccc(F)c4C3=O)[C@@H]1CC2 [Compound 6] |  |  |  |  | 13 | 4.8 ± 0.2 µM | 7 | 9.4 ± 0.9 µM | 12 | 5.4 ± 0.6 µM | 63.5 ± 6.3 µM |  |  |  |  | Morphological changes (early apoptosis) [10]: Membrane blebbing |
| CC(C)c1cc2c(c(O)c1O)[C@@]1(C)CCC[C@@](C)(CN3C(=O)c4ccccc4C3=O)[C@@H]1CC2 [Compound 12] | 6–43 | 18 | 12 | 7 |  |  |  |  |  |  |  | 1.8 ± 0.2 µM | 2.8 ± 0.2 µM | 4.6 ± 0.6 µM | 32.5 ± 5 µM |  |
| COC(=O)[C@]1(C)CCC[C@]2(C)c3c(cc(C(C)C)c(O)c3O)CC[C@@H]12 [Compound 13] |  | ≈1 | 6 | ≈1 |  |  |  |  |  |  |  | > 50 µM | 9.4 ± 0.4 µM | > 50 µM | 57.6 ± 3 µM | Bioactivity across the tested cell lines (in words) ([1]; conclusions, Table 1 values of this compound ref 13): minimal activity |
| COc1ccc2c(c1)C(=O)N(C[C@]1(C)CCC[C@]3(C)c4cc(O)c(C(C)C)cc4CC[C@@H]13)C2=O [Compound 9, 12-Hydroxy-N,N-(4-methoxyphthaloyl)dehydroabietylamine] |  |  |  |  | 14 | 4.3 ± 0.2 µM | 7 | 8.2 ± 0.8 µM | 5 | 12 ± 1.2 µM | 58.9 ± 5.7 µM |  |  |  |  |  |
| COC(=O)[C@]1(C)CCC[C@]2(C)C3=C(C=C(C(C)C)C(=O)C3=O)CC[C@@H]12 [Compound 11] | 6–43 | 43 | 15 | 7 |  |  |  |  |  |  |  |  |  |  |  | Colony-forming ability of SUM149 cells [11]: notable exceptions; Effectiveness against SUM149 cell line (in words) ([2]; conclusions, Table 1 values of these compounds ref 13): notable effectiveness; IC50 [2, 12]: 1.3 ± 0.6 µM; IC50 [3, 13]: 3.9 ± 0.8 µM; IC50 [4, 14]: 8.3 ± 0.9 µM; IC50 [5, 15]: 56.5 ± 6.1 µM |
